Experimental data published in PubChem BioAssay AID2060908 (Molecular Pharmacology Branch, DTP, NCI, 2025).

System: 186277-243-T-J2-PDC complex spheroids, viability
Experiment: Anticancer human tumor 186277-243-T-J2-PDC patient-derived colon adenocarcinoma cell line growth inhibition [RAS]
Settings: for IC50: curve of first compound; for viability, T/C: stronger effect = lower value
From the text: RAS pathway inhibitors in Combinations in Complex Spheroids
A high-throughput screen of multi-cell type tumor spheroids was designed to identify active combinations of RAS pathway inhibitors and targeted small molecules. Complex spheroids include a stromal component modeled by human endothelial cells (HUVEC) and fibroblasts modeled by human mesenchymal stem cells (MSCs). The concentration ranges selected for each drug and investigational agent were based upon clinically achievable concentrations if the clinical Cmax of the agent was known.
Compounds. The drugs and investigational agents: abemaciclib (NSC768073), cobimetinib (NSC768068), divarasib (GDC6063, NSC841802), docetaxel (NSC628503), GDC-1971 (RLY-1971, NSC841576), gemcitabine (NSC613327), inavolisib (NSC800729), ipatasertib (NSC767898), KB-0742 (NSC834161), MRTX-1133 (NSC836407), osimertinib (NSC779217), RMC-4630 (NSC839698), RMC-6236 (NSC851965), RMC-6291 (NSC852671), Ro-3306 (NSC812927), sapanisertib (NSC764658), SN-38 (NSC673596), staurosporine (NSC755774), SY5609 (NSC837396), and tovorafenib (DAY101, NSC766906), were obtained from the National Cancer Institute (NCI) Developmental Therapeutics Program Chemical Repository. The FDA-approved anticancer drug set is available from the NCI Developmental Therapeutics Program. […] The stock solutions were prepared in dimethyl sulfoxide (DMSO, Sigma-Aldrich, St. Louis, MO, cat. D2650) at 800-fold the tested concentration and stored at -70 degrees C prior to their use. All drugs and investigational agents were tested over a range starting from a high concentration at or near the clinical Cmax and decreasing in half-log increments. If the clinical Cmax for an agent had not been determined, the highest concentration tested was 10 microM.
Cell Culture. All cells were maintained in an incubator at 37 degrees C and 5% CO2 with 95% humidity. The PDC lines were cultured according to standard operating procedures established by the NCI PDMR. All PDCs were thawed and cultured in Matrigel-coated flasks prepared with a working solution of 1X Ham's F-12 nutrient mix, without supplementation (Invitrogen, Waltham, MA, cat. 11765054), 100 U/mL penicillin-streptomycin (Invitrogen, cat. 15140122), and 2.5% Matrigel (Corning Inc., Corning, NY, cat. 354248) for the first three passages. The 362531-283-R-J2-PDC and 782815-120-R-J1-PDC lines were cultured in 6C/Colon 1B media, which includes advanced DMEM/F-12 (Thermo Fisher Scientific, cat. 12634028), 10 mM HEPES (Thermo Fisher Scientific, cat. 15630080), 1X GlutaMAX supplement (Thermo Fisher Scientific, cat. 35050061), 0.1 mg/mL primocin (InvivoGen, San Diego, CA, cat. ant-pm-2), 10% defined fetal bovine serum, heat inactivated (HyClone Laboratories Inc., Logan, UT, cat. SH30070.03HI), 50% L-WRN conditioned media (ATCC, cat. CRL-3276), 1.25 mM N-Acetyl-L-cysteine (Sigma-Aldrich, cat. A9165), 10 mM nicotinamide (Sigma-Aldrich, cat. N0636), 1X B-27 supplement (Thermo Fisher Scientific, cat. 17504044), 1X N-2 supplement (Thermo Fisher Scientific, cat. 17502048), 50 ng/mL human EGF (Thermo Fisher Scientific, cat. PHG0311), and 10 microM Y-27632 dihydrochloride (Tocris Bioscience, cat. 1254). The K12877-001-R-J1-PDC line was cultured in 6I media, which includes all 6C/Colon 1B media plus 10 ng/mL human FGF-10 (PeproTech, cat. 100-26), 1 ng/mL human FGF-2 (PeproTech, cat. 100-18B), 1 µM prostaglandin E2 (Tocris Bioscience, cat. 2296), […] hydrocortisone (Sigma-Aldrich, cat. H4001), and […] bovine insulin (Sigma-Aldrich, cat. I6634). The K86415-001-R-J1-PDC line was cultured in 6D media, which includes all 6C/Colon 1B media components minus the L-WRN conditioned media. The 485176-168-R4-J1-PDC was cultured in PANC media, which includes all 6C/Colon 1B media plus 100 ng/mL human FGF-10 (PeproTech, cat. 100-26), 500 nM SB-431542 (Selleckchem, cat. S1067), and 10 nM gastrin (Tocris Bioscience, cat. 3006). […]
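Also: spheroids exposed to compounds for 7 days before viability read.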

Compound: CCC(CC)c1cc(NC2CCC(N)C2)n2nccc2n1 (configuration not stated) + C#Cc1c(F)ccc2cc(O)cc(-c3ncc4c(N5CC6CCC(C5)N6)nc(OCC56CCCN5CC(F)C6)nc4c3F)c12
- IC50 (second compound 0.0316 µM): 672 nM
- IC50 (second compound 0.1 µM): 564 nM
- IC50 (second compound 0.316 µM): < 31.6 nM
- IC50 (second compound 1 µM): < 31.6 nM
- IC50 (second compound 3.16 µM): < 31.6 nM
- IC50 (second compound 10 µM): < 31.6 nM
- viability, T/C (second compound 0.0316 µM, first compound 0.0316 µM): 79.8%
- viability, T/C (second compound 0.0316 µM, first compound 0.1 µM): 77.9%
- viability, T/C (second compound 0.0316 µM, first compound 0.316 µM): 79.6%
- viability, T/C (second compound 0.0316 µM, first compound 1 µM): 34.8%
- viability, T/C (second compound 0.0316 µM, first compound 3.16 µM): 3.07%
- viability, T/C (second compound 0.0316 µM, first compound 10 µM): 0.17%
- viability, T/C (second compound 0.1 µM, first compound 0.0316 µM): 56.6%
- viability, T/C (second compound 0.1 µM, first compound 0.1 µM): 77.6%
- viability, T/C (second compound 0.1 µM, first compound 0.316 µM): 69%
- viability, T/C (second compound 0.1 µM, first compound 1 µM): 32.4%
- viability, T/C (second compound 0.1 µM, first compound 3.16 µM): 2.77%
- viability, T/C (second compound 0.1 µM, first compound 10 µM): 0.13%
- viability, T/C (second compound 0.316 µM, first compound 0.0316 µM): 32.8%
- viability, T/C (second compound 0.316 µM, first compound 0.1 µM): 40%
- viability, T/C (second compound 0.316 µM, first compound 0.316 µM): 33.4%
- viability, T/C (second compound 0.316 µM, first compound 1 µM): 17.3%
- viability, T/C (second compound 0.316 µM, first compound 3.16 µM): 2.52%
- viability, T/C (second compound 0.316 µM, first compound 10 µM): 0.1%
- viability, T/C (second compound 1 µM, first compound 0.0316 µM): 16.6%
- viability, T/C (second compound 1 µM, first compound 0.1 µM): 21.3%
- viability, T/C (second compound 1 µM, first compound 0.316 µM): 19.9%
- viability, T/C (second compound 1 µM, first compound 1 µM): 11.3%
- viability, T/C (second compound 1 µM, first compound 3.16 µM): 2.86%
- viability, T/C (second compound 1 µM, first compound 10 µM): 0.14%
- viability, T/C (second compound 3.16 µM, first compound 0.0316 µM): 11.1%
- viability, T/C (second compound 3.16 µM, first compound 0.1 µM): 14%
- viability, T/C (second compound 3.16 µM, first compound 0.316 µM): 12.2%
- viability, T/C (second compound 3.16 µM, first compound 1 µM): 10.1%
- viability, T/C (second compound 3.16 µM, first compound 3.16 µM): 2.81%
- viability, T/C (second compound 3.16 µM, first compound 10 µM): 0.16%
- viability, T/C (second compound 10 µM, first compound 0.0316 µM): 9.8%
- viability, T/C (second compound 10 µM, first compound 0.1 µM): 9.61%
- viability, T/C (second compound 10 µM, first compound 0.316 µM): 8.97%
- viability, T/C (second compound 10 µM, first compound 1 µM): 6.36%
- viability, T/C (second compound 10 µM, first compound 3.16 µM): 2.12%
- viability, T/C (second compound 10 µM, first compound 10 µM): 0.21%
